Test results from patent publication US20090305239A1, “Methods and compositions for determing a level of biologically active serum paraoxonase” (priority 2005, published 2009).
Where “and” joins values, the source holds several entries; their conditions need not be identical. Equal entries are not always repeated.

Key:
PON1 in human sera [1] = target: T1, PON1 in human sera (Homo sapiens, UniProt P27169); experiment: Serum lactonase activity with TBBL (DTNB, 412 nm), with and without inhibitors; type: biochemical
T1 sequence (P27169 whole entry): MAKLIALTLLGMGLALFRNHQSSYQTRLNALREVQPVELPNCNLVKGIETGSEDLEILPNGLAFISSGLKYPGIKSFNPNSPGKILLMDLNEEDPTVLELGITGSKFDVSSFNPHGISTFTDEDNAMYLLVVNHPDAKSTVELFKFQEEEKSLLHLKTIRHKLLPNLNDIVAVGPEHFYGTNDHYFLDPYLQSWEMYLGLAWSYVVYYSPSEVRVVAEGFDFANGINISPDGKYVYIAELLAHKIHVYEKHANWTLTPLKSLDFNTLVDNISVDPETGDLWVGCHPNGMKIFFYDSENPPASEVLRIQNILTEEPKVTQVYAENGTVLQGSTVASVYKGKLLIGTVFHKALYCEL
Procedure: (§1) Hydrolysis of phenyl acetate was monitored directly by absorbance at 270 nm (FIG. 2b).
(§2) The reaction mixtures of phenyl acetate contained 1 mM phenyl acetate from 500 mM stock in methanol. All the reaction mixtures contained final 1% DMSO. […] The serum was incubated with the inhibitors for 5-10 minutes before the initiation of the reaction.
(§3) In parallel, we the PON1 activity was determined with phenyl acetate, which is routinely used as a probe for PON1 levels in the serum.

PON1 in human sera [2] = target: T1, PON1 in human sera; details: samples #1 and #2
Procedure: as §1, §2, §3

PON1 in human sera [3] = target: T1, PON1 in human sera; experiment: biochemical; details: read-out: Serum activity with 1 mM phenyl acetate, 100 μM HQ (% of uninhibited activity), human serum 1:400 pre-incubated with 100 μM HQ; samples #1 and #2
Procedure: as §1, §2, §3

[4] = system: E. coli cells expressing recombinant PON1 (rePON1); experiment: Detection of PON1 lactonase activity in living cells by FACS in w/o/w emulsions with TBBL and CPM; type: cell-based; details: TBBL with thiol-detecting dye CPM, emission at 530 nm, single E. coli cells in w/o/w emulsion
Excerpt: Shown are representative histograms of the fluorescent emission at 530 nm (the thiol-CPM adduct) for single cells expressing GFP and PON1 (white), and control cells with GFP only (grey).
PON1 activity was also detected in living cells, using FACS (fluorescence-activated cell sorter) and emulsion droplets that compartmentalize the cells together with the products of the enzymatic activity^[15, 16]. […] The w/o emulsion was then re-emulsified, to generate the w/o/w double emulsion with a continuous water phase that is amenable to FACS^[15]. The FACS triggering threshold was set for the emission of GFP, and an appropriate gate was chosen corresponding to the level of emission of single E. coli cells^[16]. […] A clear difference (>20-fold in mean fluorescence) was observed relative to cells bearing no rePON1

PON3 = experiment: Lactonase activity of PON3 in purified enzyme samples and crude cell lysates; type: biochemical; details: data not shown
[5] = system: recombinant PON1 variant rePON1-G2E6; details: substrate hydrolysis by rePON1; 50 mM Tris pH 8.0, 1 mM CaCl2, 50 mM NaCl; DTNB detection
Procedure: The kinetic parameters of enzymatic hydrolysis of the three TXBLs by PON1 were determined by detecting the released thiol moiety with DTNB.
Kinetics were performed with recombinant PON1 variant rePON1-G2E6 expressed in fusion with a thioredoxin and 6×His tag, and purified as described^[19].
Kinetic measurements with DTNB—The rates of enzymatic hydrolyses of the thioalkyl-substituted lactones were determined in 50 mM Tris pH 8.0 with 1 mM CaCl2 and 50 mM NaCl (activity buffer). The enzyme stocks were kept in activity buffer containing 0.1% tergitol, and the enzyme concentration used was 8.375×10^−9 M. Stocks of 100-400 mM of substrates were prepared in acetonitrile and diluted with the reaction buffer immediately before initializing the reaction. […] The substrate concentrations were varied in the range of 0.3×KM up to (2-3)×KM. The co-solvent percentage was kept at 1% in all reactions. The DTNB dye (Ellman's reagent, 5′,5-dithio bis(2-nitrobenzoic acid) was used from 100 mM stock in DMSO, at a final concentration of 0.5 mM. An ε412 nm=7000 OD/M was used to calculate the activity. Product formation was monitored spectrophotometrically at 412 nm in 200 μl reaction volumes, using 96-well plates, on a microtiter plate reader (PowerWave HT™ Microplate Scanning Spectrophotometer; optical length ˜0.5 cm). Initial velocities (v0) were determined at eight different concentrations for each substrate. v0 values were corrected for the background rate of spontaneous hydrolysis in the absence of enzyme. Kinetic parameters (kcat, KM, kcat/KM) were obtained by fitting the data to the Michaelis-Menten equation [v0=kcat[E]0[S]0/([S]0+KM)], using the program Kaleidagraph 5.0.

rePON1 = rePON1 with 5-alkyl butyrolactones, taken from Ref. 4; cited from earlier work
[6] = human serum 1:400 pre-incubated with 5 mM EDTA

Which “Serum activity with 0.5 mM TBBL, 5 mM EDTA” value (PON1 in human sera [1]; human serum 1:400 pre-incubated with 5 mM EDTA, samples #1 and #2) does the source give for O=C(O)CN(CCN(CC(=O)O)CC(=O)O)CC(=O)O [EDTA] here?
Its value is 0.04 ± 0.01 μM product/min and 0.06 ± 0.01 μM product/min.

And the “inhibition rates by EDTA” value (PON1 in human sera [1]; serum lactonase (TBBL) and aryl esterase (phenyl acetate) activities, 5 mM EDTA)?
Its value is > 99%.

What about the “Serum activity with 1 mM phenyl acetate, 5 mM EDTA” value (PON1 in human sera [2]; [6]) of the same compound?
The value was ~0 μM product/min.

What about the “Serum activity with 1 mM phenyl acetate, 5 mM EDTA (% of uninhibited activity)” value (PON1 in human sera [2]; [6]) of the same compound?
Its value is “(0%)”.

What does the source list for Oc1ccc2ccccc2n1 [HQ, 2-hydroxyquinoline]?
Serum activity with 0.5 mM TBBL, 100 μM HQ (PON1 in human sera [1]; human serum 1:400 pre-incubated with 100 μM HQ, samples #1 and #2): 2.09 ± 0.04 μM product/min and 1.80 ± 0.01 μM product/min; activity at 100 µM (PON1 in human sera [1]; read-out: Serum activity with 0.5 mM TBBL, 100 μM HQ (% of uninhibited activity), human serum 1:400 pre-incubated with 100 μM HQ, samples #1 and #2): 8.6%; activity at 100 µM (PON1 in human sera [3]): 4.9%; Serum activity with 1 mM phenyl acetate, 100 μM HQ (PON1 in human sera [2]; human serum 1:400 pre-incubated with 100 μM HQ): 5.9 ± 0.4 μM product/min and 3.9 ± 0.3 μM product/min

What does the source list for CCCCSC1CCC(=O)O1 (stereo not drawn) [TBBL, 5-butylsulfanyl-dihydro-furan-2-one]?
difference in mean fluorescence relative to cells bearing no rePON1 [4]: > 20 fold; lactonase activity of PON3 assayed with the substrate (PON3): could be assayed; Km [5]: 270 ± 40 µM; kcat [5]: 116 ± 4 s⁻¹

Which results are given for CCSC1CCC(=O)O1 (stereo not drawn) [TEBL, 5-ethylsulfanyl-dihydro-furan-2-one]?
lactonase activity of PON3 assayed with the substrate (PON3): could be assayed; Km [5]: 360 ± 50 µM; kcat [5]: 161 ± 10 s⁻¹

Which Km [5] does the source give for CCCCCCSC1CCC(=O)O1 (stereo not drawn) [THBL, 5-hexylsulfanyl-dihydro-furan-2-one] here?
The Km was 350 ± 30 µM.

And the kcat [5]?
The kcat was 52.4 ± 2.6 s⁻¹.

With CCCCCC1CCC(=O)O1 (stereo not drawn) [γ-nonanoic lactone] as the compound, how does the Km (rePON1) read?
Its Km is 390 ± 30 µM.

What about the kcat (rePON1) of the same compound?
Its kcat is 31 ± 2 s⁻¹.

For CCCCCCCC1CCC(=O)O1 (stereo not drawn) [γ-undecanoic lactone], which Km (rePON1) is on record?
Its Km is 600 ± 70 µM.

And the kcat (rePON1)?
The kcat was 62 ± 2 s⁻¹.
